# Like-named read-outs stand apart in the source and are kept apart here.
# Legend:
# [1] = tested on: P. berghei-ANKA-GFP-LucCON liver stage parasites in HepG2-A16-CD81EGFP cells; experiment: P. berghei liver stage Pb-Luc assay, Method 1 (UCSD, 1536-well); format: cell-based, Plasmodium berghei; settings: Plasmodium berghei, 48 h, average of 2 wells, 1536-well plate; for activity at 1 µM: nominal 1 uM (10 mM stock), […] for 15 mM, 1.2 uM for 12 mM, 2 uM for 20 mM stock; for activity at 3 µM: nominal 3 uM (10 mM stock), 4.5 uM for 15 mM, 3.6 uM for 12 mM, 6 uM for 20 mM stock; on all read-outs here: reference of the scale not given here
# [2] = tested on: Plasmodium falciparum Dd2 asexual blood stage parasites; experiment: microbe, parasite or virus in culture; set-up: species or system Plasmodium falciparum Dd2 in human erythrocytes; single determination (one 11-point concentration-response curve); settings: Plasmodium falciparum, DD2, Erythrocyte, 72 h; read-out: AC50
# in vitro = settings: human
# [3] = repeat 1, read-out: Pb-Luc signal, 1 uM, repeat 1
# [4] = repeat 2, read-out: Pb-Luc signal, 1 uM, repeat 2
# [5] = repeat 3, read-out: Pb-Luc signal, 1 uM, repeat 3
# [6] = repeat 1, read-out: Pb-Luc signal, 3 uM, repeat 1
# [7] = repeat 2, read-out: Pb-Luc signal, 3 uM, repeat 2
# [8] = repeat 3, read-out: Pb-Luc signal, 3 uM, repeat 3
# [9] = nominal 1 uM (10 mM stock), […] for 15 mM, 1.2 uM for 12 mM, 2 uM for 20 mM stock, average of 2 wells, repeat 2
# [10] = nominal 3 uM (10 mM stock), 4.5 uM for 15 mM, 3.6 uM for 12 mM, 6 uM for 20 mM stock, average of 2 wells, repeat 2
# [11] = HepG2-A16-CD81EGFP cells, uninfected
Compound,"activity at 1 µM [1, 3]","activity at 1 µM [1, 4]","activity at 1 µM [1, 5]","activity at 3 µM [1, 6]","activity at 3 µM [1, 7]","activity at 3 µM [1, 8]",AC50 [2],"HepG2 viability signal, 1 uM, repeat 2 (HepG2-A16-CD81EGFP cells; [9])","HepG2 viability signal, 3 uM, repeat 2 (HepG2-A16-CD81EGFP cells; [10])","viability at 48 h, 1 µM (in vitro; [11])","viability at 48 h, 3 µM (in vitro; [11])","HepG2 viability signal, 1 uM, repeat 2 (HepG2-A16-CD81EGFP cells; human, 48 h, 1 µM)","HepG2 viability signal, 3 uM, repeat 2 (HepG2-A16-CD81EGFP cells; human, 48 h, 3 µM)","viability at 48 h, 1 µM (in vitro)","viability at 48 h, 3 µM (in vitro)"
COC(=O)c1ccc2[nH]c(C[C@@H]3C[C@@H](C(C)C)[C@H](CNC4CCCCC4)C=C3C)nc2c1 [NCGC00401987-01],81.1%,132%,98.9%,56.8%,65%,83.4%,8410 nM,103.84%,105.05%,99.2%,102%,,,,
CCOC(=O)c1ccc2c(c1)[C@@H]1C=CC[C@@H]1[C@H](c1cccc(OC)c1OC)N2 [NCGC00100279-01],74.5%,94.6%,122%,60.1%,74.5%,64.8%,2660 nM,100.32%,102.96%,97.9%,105%,,,,
CCc1cccc(-n2c(=O)c3cccnc3n2CC(=O)NCc2ccccc2)c1 [NCGC00128448-01],105%,86.8%,118%,150%,109%,92.9%,1680 nM,105.26%,100.08%,105%,100%,,,,
CCN1CCN(Cc2c(O)ccc3c(=O)c(Oc4ccccc4Cl)c(C(F)(F)F)oc23)CC1 [NCGC00101484-01],88.6%,66%,90.1%,93.5%,101%,77.7%,596 nM,99.03%,97.39%,99.8%,94.1%,,,,
Cc1ccc2oc(=O)c3cnn(CC(=O)Nc4cccc(C(F)(F)F)c4)c3c2c1 [NCGC00110933-01],106%,124%,113%,86.9%,117%,100%,2660 nM,99.44%,101.21%,94%,94.8%,,,,
COc1cc2c(cc1OCc1ccccc1)N(C(=O)c1cc3ccccc3[nH]1)CC21CCN(C)CC1 [NCGC00419851-01],59.5%,89.6%,74.1%,16.8%,54.6%,95.7%,944 nM,,,,,101.97%,102.28%,99%,98.9%
CCN1CCN(C(=O)c2ccc3c(c2)N(Cc2ccc(Cl)cc2)C(=O)c2ccccc2[S+]3[O-])CC1 (centres unmarked) [NCGC00109464-01],104%,92.1%,102%,83.2%,80.5%,103%,668 nM,105.55%,102.35%,110%,108%,,,,
Cc1ccc(CN2COc3cc(C)c4c(oc(=O)c5ccccc54)c3C2)cc1 [NCGC00116336-01],94.2%,106%,96.8%,71.6%,78.2%,92.4%,1330 nM,104.57%,104.67%,101%,105%,,,,
CCOc1ccc(Cl)cc1CN(C)CC1(O)CCCNC1 (centres unmarked) [NCGC00439019-01],133%,111%,171%,102%,113%,128%,2990 nM,100.51%,101.33%,99.5%,96.9%,,,,
CCOc1ccccc1CN1CCCN(Cc2ccncc2)C(c2ccccc2)CC(=O)NCC1 (centres unmarked) [NCGC00467181-01],105%,89.1%,111%,102%,80.2%,86.4%,6680 nM,96.74%,96.24%,101%,96.8%,,,,
CCN(Cc1ccccc1)C(=O)CCC[C@@H]1[C@H]2CCCN3CCC[C@@H](CN1C(=O)c1ccccc1)[C@@H]23 [NCGC00429496-01],107%,115%,85.5%,89.3%,121%,99.6%,13300 nM,99.16%,100.31%,93.4%,93.8%,,,,
CC1=C[C@@H](CN(C)C)[C@H](C(C)C)C[C@H]1Cc1nc2ncc(Cl)cc2[nH]1 [NCGC00421128-01],85.6%,76%,112%,59.7%,57.2%,82.1%,21700 nM,100.56%,100.80%,106%,108%,,,,
COc1cccc([C@@H]2CCN(Cc3[nH]c4ccccc4c3C)C[C@H]2O)c1 [NCGC00443267-01],83.1%,92.1%,74.1%,85.2%,118%,62.2%,1500 nM,,,,,93.46%,93.99%,91.9%,96.2%
